How the values were obtained:
[1] = Masking or reduction of unpleasant (bitter) flavour impression in preparations, rated by a group of experts; conditions: against caffeine, quinine, naringin, potassium chloride, magnesium sulfate, beta-lactam antibiotics
Procedure: (§1) To quantify the reduction in the bitter impression with the use of γ-aminobutyric acid, the bitterness of a 500 ppm caffeine solution (comparative solution; not according to the invention) and of four samples according to the invention containing 500 ppm of caffeine and differing amounts of γ-aminobutyric acid was determined by a group of experts (rating 0 [not bitter] to 10 [extremely bitter]).
as §1, with “impression,” for “impression with the use of γ-aminobutyric acid,”, “12.5” for “500”, “quinine hydrochloride” for “caffeine”, “eight” for “four”, “5” for “10”
To quantify the reduction in the bitter impression, the bitterness of (a) a 500 ppm caffeine solution (basic solution), (b) a sample containing 500 ppm of caffeine, 100 ppm of homoeriodictyol sodium salt and 20 ppm of γ-aminobutyric acid, and (c) a sample containing 500 ppm of caffeine and 20 ppm of γ-aminobutyric acid was determined by a group of experts (rating 1 [not bitter] to 10 [extremely bitter]). […]

[2] = WO 00/21390; cited from earlier work

Compound | concentration in preparations at which the unpleasant, in particular bitter, flavour impression is reduced or completely suppressed [1] | concentration needed as bitterness-masking agent [2]
NCCCC(=O)O [γ-aminobutyric acid] | less than 0.1 wt. % | 
polyglutamic acid |  | around 1 wt. %

From patent publication US20100331349A1, “Use of gamma-aminobutyric acid to mask or reduce an unpleasant flavour impression and preparations containing gamma-aminobutyric” (Symrise GmbH & Co. KG, priority 2004, published 2010)
